Test results reported in US20250230193A1, “CYCLIC COMPOUND HAVING SELECTIVE KRAS INHIBITORY EFFECT ON HRAS AND NRAS” (CHUGAI SEIYAKU KABUSHIKI KAISHA, priority 2022, published 2025).
Where a SMILES comes first, the peptide text is derived from it. Bridges are numbered along the chain shown (N, C = ends). [ ]: non-standard residue; d: D form. The star is where a group is joined. ξ: configuration not given here. hPhe(3-Cl-4-CF3) = N[C@@H](CCc1ccc(C(F)(F)F)c(Cl)c1)C(=O)O; NPrPhe(4-CF3) = CCCN[C@@H](Cc1ccc(C(F)(F)F)cc1)C(=O)O; NMeGly(cPent) = CN[C@H](C(=O)O)C1CCCC1; NEtLeu = CCN[C@@H](CC(C)C)C(=O)O; NMeD = CN[C@@H](CC(=O)O)C(=O)O; NMeL = CN[C@@H](CC(C)C)C(=O)O; NEtAla = CCN[C@@H](C)C(=O)O; ξNMeD = CNC(CC(=O)O)C(=O)O; Morpholide = C1CN(*)CCO1; NMeA = CN[C@@H](C)C(=O)O; dNMeA = CN[C@H](C)C(=O)O; Ac5c = NC1(C(=O)O)CCCC1; Aze = O=C(O)[C@@H]1CCN1; ξP = O=C(O)C1CCCN1; NEtG = CCNCC(=O)O; Sar = CNCC(=O)O

What was measured:
[1] = target: GDP-bound NRAS wild-type protein (Homo sapiens, UniProt P01111); test: Binding to NRAS by surface plasmon resonance (SPR), Single Cycle Kinetics; details: KD ratio NRAS/KRAS, SPR
[2] = target: GDP-bound HRAS wild-type protein (Homo sapiens, UniProt P01112); test: Binding to HRAS by surface plasmon resonance (SPR), Single Cycle Kinetics; details: KD ratio HRAS/KRAS, SPR
Chain of GDP-bound HRAS wild-type protein (P01112 whole entry): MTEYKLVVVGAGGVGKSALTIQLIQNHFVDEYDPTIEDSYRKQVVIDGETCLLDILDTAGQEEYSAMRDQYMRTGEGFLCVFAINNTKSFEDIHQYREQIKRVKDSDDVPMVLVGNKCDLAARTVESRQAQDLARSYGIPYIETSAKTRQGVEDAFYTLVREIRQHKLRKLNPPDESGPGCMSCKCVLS

Chain of GDP-bound NRAS wild-type protein (P01111 whole entry): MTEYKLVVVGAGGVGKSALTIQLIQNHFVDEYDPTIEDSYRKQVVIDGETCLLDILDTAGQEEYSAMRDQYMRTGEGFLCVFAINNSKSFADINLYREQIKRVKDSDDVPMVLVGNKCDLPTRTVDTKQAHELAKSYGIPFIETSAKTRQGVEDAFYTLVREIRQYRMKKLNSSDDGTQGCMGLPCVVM

Compound | NRAS/KRAS (ratio of KD for GDP-bound NRAS wild-type to KD for KRAS) [1] | HRAS/KRAS (ratio of KD for GDP-bound HRAS wild-type to KD for KRAS) [2]
CCCN1C(=O)CN(C)C(=O)CN(CC)C(=O)[C@H]([C@@H](C)CC)NC(=O)[C@H](CC(C)C)N(C)C(=O)C[C@@H](C(=O)N2CCOCC2)N(C)C(=O)[C@H](C2CCCC2)N(C)C(=O)C2(CCCC2)NC(=O)[C@@H]2CCCN2C(=O)[C@H](CCc2ccc(C(F)(F)F)c(Cl)c2)NC(=O)CN(C)C(=O)[C@@H]1Cc1ccc(C(F)(F)F)cc1 [PP0145] ([NMeL]I[NEtG][Sar][NPrPhe(4-CF3)][Sar][hPhe(3-Cl-4-CF3)]P[Ac5c][NMeGly(cPent)][NMeD]-Morpholide; lactam N-11) | B (a compound having 3 or more and less than 10 is denoted as B) | B (a compound having 3 or more and less than 10 is denoted as B)
CCCN1C(=O)CN(C)C(=O)CN(C)C(=O)[C@H]([C@@H](C)CC)NC(=O)[C@H](CC(C)C)N(C)C(=O)C[C@@H](C(=O)N2CCOCC2)NC(=O)[C@H](C2CCCC2)N(C)C(=O)C2(CCCC2)NC(=O)[C@@H]2CCCN2C(=O)[C@H](CCc2ccc(C(F)(F)F)c(Cl)c2)NC(=O)CN(C)C(=O)[C@@H]1Cc1ccc(C(F)(F)F)cc1 [PP0146] ([NMeL]I[Sar][Sar][NPrPhe(4-CF3)][Sar][hPhe(3-Cl-4-CF3)]P[Ac5c][NMeGly(cPent)]D-Morpholide; lactam N-11) | B (a compound having 3 or more and less than 10 is denoted as B) | B (a compound having 3 or more and less than 10 is denoted as B)
CCCN1C(=O)CN(C)C(=O)CN(C)C(=O)[C@H]([C@@H](C)CC)NC(=O)[C@H](CC(C)C)N(C)C(=O)C[C@@H](C(=O)N2CCOCC2)N(C)C(=O)[C@H](C2CCCC2)N(C)C(=O)C2(CCCC2)NC(=O)[C@@H]2CCCN2C(=O)[C@H](CCc2ccc(C(F)(F)F)c(Cl)c2)NC(=O)[C@@H](C)N(C)C(=O)[C@@H]1Cc1ccc(C(F)(F)F)cc1 [PP0148] ([NMeL]I[Sar][Sar][NPrPhe(4-CF3)][dNMeA][hPhe(3-Cl-4-CF3)]P[Ac5c][NMeGly(cPent)][NMeD]-Morpholide; lactam N-11) | B (a compound having 3 or more and less than 10 is denoted as B) | B (a compound having 3 or more and less than 10 is denoted as B)
CCCN1C(=O)CN(C)C(=O)CN(C)C(=O)[C@H]([C@@H](C)CC)NC(=O)[C@H](CC(C)C)N(C)C(=O)CC(C(=O)N2CCOCC2)N(C)C(=O)[C@H](C2CCCC2)N(C)C(=O)C2(CCCC2)NC(=O)[C@@H]2CCCN2C(=O)[C@H](CCc2ccc(C(F)(F)F)c(Cl)c2)NC(=O)C2CCCN2C(=O)[C@@H]1Cc1ccc(C(F)(F)F)cc1 (some centres unmarked) [PP0149] ([NMeL]I[Sar][Sar][NPrPhe(4-CF3)][ξP][hPhe(3-Cl-4-CF3)]P[Ac5c][NMeGly(cPent)][ξNMeD]-Morpholide; lactam N-11) | C (A compound having a KD ratio of 0.1 or more and less than 3 is denoted as C) | B (a compound having 3 or more and less than 10 is denoted as B)
CCCN1C(=O)CN(C)C(=O)CN(C)C(=O)[C@H]([C@@H](C)CC)NC(=O)[C@H](CC(C)C)N(C)C(=O)C[C@@H](C(=O)N2CCOCC2)N(C)C(=O)[C@H](C2CCCC2)N(C)C(=O)[C@@H](C)NC(=O)[C@@H]2CCCN2C(=O)[C@H](CCc2ccc(C(F)(F)F)c(Cl)c2)NC(=O)CN(C)C(=O)[C@@H]1Cc1ccc(C(F)(F)F)cc1 [PP0150] ([NMeL]I[Sar][Sar][NPrPhe(4-CF3)][Sar][hPhe(3-Cl-4-CF3)]P[dA][NMeGly(cPent)][NMeD]-Morpholide; lactam N-11) | B (a compound having 3 or more and less than 10 is denoted as B) | C (A compound having a KD ratio of 0.1 or more and less than 3 is denoted as C)
CCCN1C(=O)[C@@H]2CCN2C(=O)[C@H](C)N(C)C(=O)[C@H]([C@@H](C)CC)NC(=O)[C@H](CC(C)C)N(CC)C(=O)C[C@@H](C(=O)N2CCOCC2)N(C)C(=O)[C@H](C2CCCC2)N(C)C(=O)C2(CCCC2)NC(=O)[C@@H]2CCCN2C(=O)[C@H](CCc2ccc(C(F)(F)F)c(Cl)c2)NC(=O)CN(C)C(=O)[C@@H]1Cc1ccc(C(F)(F)F)cc1 [PP0151] ([NEtLeu]I[NMeA][Aze][NPrPhe(4-CF3)][Sar][hPhe(3-Cl-4-CF3)]P[Ac5c][NMeGly(cPent)][NMeD]-Morpholide; lactam N-11) | C (A compound having a KD ratio of 0.1 or more and less than 3 is denoted as C) | C (A compound having a KD ratio of 0.1 or more and less than 3 is denoted as C)
CCCN1C(=O)[C@@H]2CCN2C(=O)[C@H](C)N(CC)C(=O)[C@H]([C@@H](C)CC)NC(=O)[C@H](CC(C)C)N(C)C(=O)C[C@@H](C(=O)N2CCOCC2)N(C)C(=O)[C@H](C2CCCC2)N(C)C(=O)C2(CCCC2)NC(=O)[C@@H]2CCCN2C(=O)[C@H](CCc2ccc(C(F)(F)F)c(Cl)c2)NC(=O)CN(C)C(=O)[C@@H]1Cc1ccc(C(F)(F)F)cc1 [PP0152] ([NMeL]I[NEtAla][Aze][NPrPhe(4-CF3)][Sar][hPhe(3-Cl-4-CF3)]P[Ac5c][NMeGly(cPent)][NMeD]-Morpholide; lactam N-11) | C (A compound having a KD ratio of 0.1 or more and less than 3 is denoted as C) | B (a compound having 3 or more and less than 10 is denoted as B)
CCCN1C(=O)[C@@H]2CCN2C(=O)[C@H](C)N(C)C(=O)[C@H]([C@@H](C)CC)NC(=O)[C@H](CC(C)C)N(C)C(=O)C[C@@H](C(=O)N2CCOCC2)N(C)C(=O)[C@H](C2CCCC2)N(C)C(=O)C2(CCCC2)NC(=O)[C@H](C)NC(=O)[C@H](CCc2ccc(C(F)(F)F)c(Cl)c2)NC(=O)CN(C)C(=O)[C@@H]1Cc1ccc(C(F)(F)F)cc1 [PP0153] ([NMeL]I[NMeA][Aze][NPrPhe(4-CF3)][Sar][hPhe(3-Cl-4-CF3)]A[Ac5c][NMeGly(cPent)][NMeD]-Morpholide; lactam N-11) | C (A compound having a KD ratio of 0.1 or more and less than 3 is denoted as C) | C (A compound having a KD ratio of 0.1 or more and less than 3 is denoted as C)
CCCN1C(=O)[C@@H]2CCN2C(=O)[C@H](C)N(C)C(=O)[C@H]([C@@H](C)CC)NC(=O)[C@H](CC(C)C)NC(=O)C[C@@H](C(=O)N2CCOCC2)N(C)C(=O)[C@H](C2CCCC2)N(C)C(=O)C2(CCCC2)NC(=O)[C@@H]2CCCN2C(=O)[C@H](CCc2ccc(C(F)(F)F)c(Cl)c2)NC(=O)CN(C)C(=O)[C@@H]1Cc1ccc(C(F)(F)F)cc1 [PP0154] (LI[NMeA][Aze][NPrPhe(4-CF3)][Sar][hPhe(3-Cl-4-CF3)]P[Ac5c][NMeGly(cPent)][NMeD]-Morpholide; lactam N-11) | C (A compound having a KD ratio of 0.1 or more and less than 3 is denoted as C) | B (a compound having 3 or more and less than 10 is denoted as B)
CCCN1C(=O)CN(C)C(=O)CNC(=O)[C@H]([C@@H](C)CC)NC(=O)[C@H](CC(C)C)N(C)C(=O)C[C@@H](C(=O)N2CCOCC2)N(C)C(=O)[C@H](C2CCCC2)N(C)C(=O)C2(CCCC2)NC(=O)[C@@H]2CCCN2C(=O)[C@H](CCc2ccc(C(F)(F)F)c(Cl)c2)NC(=O)CN(C)C(=O)[C@@H]1Cc1ccc(C(F)(F)F)cc1 [PP0155] ([NMeL]IG[Sar][NPrPhe(4-CF3)][Sar][hPhe(3-Cl-4-CF3)]P[Ac5c][NMeGly(cPent)][NMeD]-Morpholide; lactam N-11) | B (a compound having 3 or more and less than 10 is denoted as B) | C (A compound having a KD ratio of 0.1 or more and less than 3 is denoted as C)
CCCN1C(=O)[C@@H]2CCN2C(=O)CN(C)C(=O)[C@H]([C@@H](C)CC)NC(=O)[C@H](CC(C)C)N(C)C(=O)C[C@@H](C(=O)N2CCOCC2)N(C)C(=O)[C@H](C2CCCC2)N(C)C(=O)C2(CCCC2)NC(=O)[C@@H]2CCCN2C(=O)[C@H](CCc2ccc(C(F)(F)F)c(Cl)c2)NC(=O)CN(C)C(=O)[C@@H]1Cc1ccc(C(F)(F)F)cc1 [PP0156] ([NMeL]I[Sar][Aze][NPrPhe(4-CF3)][Sar][hPhe(3-Cl-4-CF3)]P[Ac5c][NMeGly(cPent)][NMeD]-Morpholide; lactam N-11) | C (A compound having a KD ratio of 0.1 or more and less than 3 is denoted as C) | B (a compound having 3 or more and less than 10 is denoted as B)
CCCN1C(=O)CN(C)C(=O)[C@@H]2CCN2C(=O)[C@H]([C@@H](C)CC)NC(=O)[C@H](CC(C)C)N(C)C(=O)C[C@@H](C(=O)N2CCOCC2)N(C)C(=O)[C@H](C2CCCC2)N(C)C(=O)C2(CCCC2)NC(=O)[C@@H]2CCCN2C(=O)[C@H](CCc2ccc(C(F)(F)F)c(Cl)c2)NC(=O)CN(C)C(=O)[C@@H]1Cc1ccc(C(F)(F)F)cc1 [PP0158] ([NMeL]I[Aze][Sar][NPrPhe(4-CF3)][Sar][hPhe(3-Cl-4-CF3)]P[Ac5c][NMeGly(cPent)][NMeD]-Morpholide; lactam N-11) | A (a compound having 10 or more and less than 20 is denoted as A) | B (a compound having 3 or more and less than 10 is denoted as B)
CCCN1C(=O)CN(C)C(=O)[C@@H]2CCCN2C(=O)[C@H]([C@@H](C)CC)NC(=O)[C@H](CC(C)C)N(C)C(=O)C[C@@H](C(=O)N2CCOCC2)N(C)C(=O)[C@H](C2CCCC2)N(C)C(=O)C2(CCCC2)NC(=O)[C@@H]2CCCN2C(=O)[C@H](CCc2ccc(C(F)(F)F)c(Cl)c2)NC(=O)CN(C)C(=O)[C@@H]1Cc1ccc(C(F)(F)F)cc1 [PP0165] ([NMeL]IP[Sar][NPrPhe(4-CF3)][Sar][hPhe(3-Cl-4-CF3)]P[Ac5c][NMeGly(cPent)][NMeD]-Morpholide; lactam N-11) | B (a compound having 3 or more and less than 10 is denoted as B) | B (a compound having 3 or more and less than 10 is denoted as B)
